Laboratory results published in patent publication US20240270821A1, “GIP/GLP1/GCG TRI-RECEPTOR AGONISTS AND USES THEREOF” (priority 2023, published 2024).
Where two headings read alike, the source gives them in different places. Starred links: 1 amine or outer side, 2 acyl side, 3 side chain; linkers in the order of their positions; H or OH if unused. Non-standard residues stand in square brackets, D forms with d. Groups on a side chain read outwards from the residue. *: point of attachment. C20 diacid = O=C(O)CCCCCCCCCCCCCCCCCCC(=O)*; C18 diacid = O=C(O)CCCCCCCCCCCCCCCCC(=O)*; γGlu = O=C(O)[C@H](CCC(=O)[*:2])N[*:1]; αMe4Pal = C[C@](N)(Cc1ccncc1)C(=O)O; αMeL = CC(C)C[C@](C)(N)C(=O)O; Orn = NCCC[C@H](N)C(=O)O; Dap = NC[C@H](N)C(=O)O; AEEA = NCCOCCOCC(=O)O; Aib = CC(C)(N)C(=O)O

Legend:
Assay type in all cases: cell-based
[1] = target: T1, hGLP-1R (Homo sapiens, UniProt P43220); experiment: Functional cAMP activity in the presence of 1% HSA
[2] = target: T1, hGLP-1R; experiment: Functional cAMP activation in the presence of 0.1% casein (no HSA);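 as to Relative cAMP EC50, hGIPR: intracellular cAMP rise after 30 min at 37 °C read by HTRF against a standard curve, scaled between buffer alone (0%) and top control ligand concentration (100%), four-parameter fit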;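 as to Relative cAMP EC50, hGLP-1R: intracellular cAMP rise after 30 min at 37 °C read by HTRF, normalized between buffer only (0%) and maximal control ligand (100%), four-parameter variable-slope fit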;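 as to Relative cAMP EC50, hGcgR: intracellular cAMP rise after 30 min at 37 °C, read by HTRF against a cAMP standard curve, scaled from buffer only (0%) to maximal control ligand response (100%)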
[3] = target: hGcgR (Homo sapiens, UniProt P47871); experiment: as above;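 also: intracellular cAMP rise after 30 min at 37 °C, read by HTRF against a cAMP standard curve, scaled from buffer only (0%) to maximal control ligand response (100%)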
[4] = target: T2, hGIPR (Homo sapiens, UniProt P48546); experiment: Functional cAMP activity in the presence of 1% HSA
T2 sequence (P48546 22-466): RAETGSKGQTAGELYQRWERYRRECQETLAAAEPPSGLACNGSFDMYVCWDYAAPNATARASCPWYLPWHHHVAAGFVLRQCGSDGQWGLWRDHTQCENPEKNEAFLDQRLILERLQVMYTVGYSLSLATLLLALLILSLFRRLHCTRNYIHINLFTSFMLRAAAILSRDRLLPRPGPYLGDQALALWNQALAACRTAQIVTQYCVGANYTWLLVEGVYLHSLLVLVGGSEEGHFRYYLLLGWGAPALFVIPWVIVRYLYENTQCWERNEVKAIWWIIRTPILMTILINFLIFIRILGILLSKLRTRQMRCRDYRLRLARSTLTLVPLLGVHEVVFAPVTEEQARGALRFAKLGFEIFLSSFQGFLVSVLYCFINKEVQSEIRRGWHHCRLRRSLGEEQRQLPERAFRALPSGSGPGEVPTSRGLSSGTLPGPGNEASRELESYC

[5] = target: human GLP1-R (Homo sapiens, UniProt P43220); experiment: GLP1-R internalization assay in HEK293 cells; conditions: for Internalization % TOP: normalized to maximum concentration of GLP-1 (100%)
[6] = target: T2, hGIPR; experiment: Functional cAMP activation in the presence of 0.1% casein (no HSA);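 as to Relative cAMP EC50, hGIPR: intracellular cAMP rise after 30 min at 37 °C read by HTRF against a standard curve, scaled between buffer alone (0%) and top control ligand concentration (100%), four-parameter fit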;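 as to Relative cAMP EC50, hGLP-1R: intracellular cAMP rise after 30 min at 37 °C read by HTRF, normalized between buffer only (0%) and maximal control ligand (100%), four-parameter variable-slope fit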;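 as to Relative cAMP EC50, hGcgR: intracellular cAMP rise after 30 min at 37 °C, read by HTRF against a cAMP standard curve, scaled from buffer only (0%) to maximal control ligand response (100%)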
[7] = target: human GcgR (Homo sapiens, UniProt P47871); experiment: Functional cAMP activity in the presence of 1% HSA
[8] = read-out: cAMP Rel EC50, hGLP-1R
[9] = in the presence of 0.1% casein (no HSA), geometric mean, read-out: Relative cAMP EC50, hGLP-1R
[10] = in the presence of 0.1% casein (no HSA), geometric mean, read-out: Relative cAMP EC50, hGcgR
[11] = HEK293 cells expressing SNAP-GLP-1R, read-out: GLP1R Internalization EC50
[12] = in the presence of 0.1% casein (no HSA), geometric mean, read-out: Relative cAMP EC50, hGIPR

Sequence of human GcgR (P47871 26-477): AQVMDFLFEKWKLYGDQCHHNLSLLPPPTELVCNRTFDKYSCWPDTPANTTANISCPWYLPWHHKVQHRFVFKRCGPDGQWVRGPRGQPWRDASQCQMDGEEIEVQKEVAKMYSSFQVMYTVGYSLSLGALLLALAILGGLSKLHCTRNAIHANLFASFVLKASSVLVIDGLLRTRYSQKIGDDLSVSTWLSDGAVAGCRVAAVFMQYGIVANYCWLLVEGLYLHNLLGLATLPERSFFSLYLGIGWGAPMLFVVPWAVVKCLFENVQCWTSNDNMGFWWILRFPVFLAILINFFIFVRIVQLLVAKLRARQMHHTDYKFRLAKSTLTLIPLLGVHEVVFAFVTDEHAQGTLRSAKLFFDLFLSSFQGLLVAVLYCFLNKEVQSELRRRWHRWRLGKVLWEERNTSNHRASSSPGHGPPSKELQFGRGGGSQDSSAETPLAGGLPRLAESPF
Sequence of hGcgR (P47871 26-477): as above
T1 sequence (P43220 24-463): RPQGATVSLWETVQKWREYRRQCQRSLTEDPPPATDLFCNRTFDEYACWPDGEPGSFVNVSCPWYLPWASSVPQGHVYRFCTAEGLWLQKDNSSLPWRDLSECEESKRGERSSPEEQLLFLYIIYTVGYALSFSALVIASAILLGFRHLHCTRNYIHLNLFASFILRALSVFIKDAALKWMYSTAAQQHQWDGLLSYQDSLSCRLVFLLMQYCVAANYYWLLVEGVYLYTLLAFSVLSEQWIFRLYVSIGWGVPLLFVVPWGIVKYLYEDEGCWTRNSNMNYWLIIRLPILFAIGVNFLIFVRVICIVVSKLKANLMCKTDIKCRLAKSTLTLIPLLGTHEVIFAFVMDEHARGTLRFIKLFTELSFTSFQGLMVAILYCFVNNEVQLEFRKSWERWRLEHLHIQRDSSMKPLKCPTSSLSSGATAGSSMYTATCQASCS
Sequence of human GLP1-R (P43220 24-463): as above

Substance | EC50 [1, 8] [nM] | EC50 [2, 9] [nM] | EC50 [3, 10] [nM] | EC50 ([4]; read-out: cAMP Rel EC50, hGIPR) [nM] | EC50 [5, 11] [nM] | Internalization % TOP [5] [%] | EC50 [6, 12] [nM] | EC50 ([7]; read-out: cAMP Rel EC50, hGcgR) [nM] | EC50 [1] [nM] | EC50 [2] [nM] | EC50 [3] [nM] | EC50 [4] [nM] | EC50 [6] [nM] | EC50 [7] [nM] | EC50 [5] [nM]
H-Y[Aib]QGTFTSDFSK[αMeL]LDKK([AEEA-γGlu-C20 diacid])AQ[Aib]AFIEYLLAGGPSSGAPPPSGE-NH2 [Example 11] | 337 | 2.07 | 12.5 | 40.8 | 75.1 | 73.8 | 0.233 | 1700 | – | – | – | – | – | – | –
H-Y[Aib]QGTFTSDFSK[αMeL]LDKK([AEEA-γGlu-C20 diacid])AQ[Aib]AFIEYLLAGGPSSGAPPPSGG-NH2 [Example 12] | 216 | 1.46 | 12.2 | 30.2 | 48.5 | 75.3 | 0.17 | 1490 | – | – | – | – | – | – | –
H-Y[Aib]QGTFTSDFSK[αMeL]LDKK([AEEA-γGlu-C20 diacid])AQ[Aib]AFIEYLLAGGPSSGEPPPGEG-NH2 [Example 31] | 737 | 2.16 | 8.42 | 63.6 | 91.9 | 67.4 | 0.249 | 1750 | – | – | – | – | – | – | –
H-Y[Aib]QGTFTSDFSK[αMeL]LDKK([AEEA-γGlu-C20 diacid])AQ[Aib]AFIEYLLAGGPSSGEPPPSEG[AEEA]-NH2 [Example 32] | 422 | 2.55 | 11.6 | 66.1 | 86.1 | 64.4 | 0.28 | 1440 | – | – | – | – | – | – | –
H-Y[Aib]QGTFTSDFSK[αMeL]LDKK([AEEA-γGlu-C20 diacid])AQ[Aib]AFIEYLLAGGPSSGEPPPSGE[AEEA]-NH2 [Example 33] | 436 | 1.71 | 7.04 | 70.7 | 106 | 64.6 | 0.285 | 1310 | – | – | – | – | – | – | –
H-Y[Aib]QGTFTSDFSK[αMeL]LDKK([AEEA-γGlu-C20 diacid])AQ[Aib]AFIEYLLAGGPSSGEPPPSGS-NH2 [Example 8] | 603 | 2.11 | 6.65 | 39.4 | 63.2 | 74 | 0.231 | 1560 | – | – | – | – | – | – | –
H-Y[Aib]QGTFTSDFSK[αMeL]LDKK([AEEA-γGlu-C20 diacid])AQ[Aib]AFIEYLLAGGPSSGEPPPSSG-NH2 [Example 7] | 494 | 2.11 | 5.05 | 50.6 | 52.6 | 76.3 | 0.203 | 1210 | – | – | – | – | – | – | –
H-Y[Aib]QGTFTSDFSK[αMeL]LDKK([AEEA-γGlu-C20 diacid])AQ[Aib]AFIEYLLEGGPSSGAPPPGGS-NH2 [Example 18] | 561 | 2.31 | 2.7 | 59.6 | 91.8 | 74.1 | 0.337 | 1210 | – | – | – | – | – | – | –
H-Y[Aib]QGTFTSDFSK[αMeL]LDKK([AEEA-γGlu-C20 diacid])AQ[Aib]AFIEYLLE[Aib]GPSSGAPPPGGS-NH2 [Example 43] | 539 | 1.55 | 2.71 | 29.6 | 58.2 | 68.3 | 0.101 | 850 | – | – | – | – | – | – | –
H-Y[Aib]QGTFTSDFSK[αMeL]LDKK([AEEA-γGlu-C20 diacid])AQ[Aib]AFIEYLLE[Aib]GPSSGAPPPSGS-NH2 [Example 45] | 493 | 1.52 | 2.08 | 33.4 | 52.6 | 62.1 | 0.112 | 879 | – | – | – | – | – | – | –
H-Y[Aib]QGTFTSDFSK[αMeL]LDKK([AEEA-γGlu-C20 diacid])AQ[Aib]AFIEYLLE[Aib]GPSSGAPPPSSG-NH2 [Example 44] | – | – | – | – | 51.5 | 65 | – | – | 591 | 1.66 | 2.46 | 35.9 | 0.116 | 1050 | –
H-Y[Aib]QGTFTSDFSK[αMeL]LDKK([γGlu-γGlu-C18 diacid])AQ[Aib]AFIEYLLEGGPSSGAPPPSEG-NH2 [Example 58] | 20.7 | 2.93 | 4.86 | 3.75 | 56.2 | 78.1 | 0.175 | 115 | – | – | – | – | – | – | –
H-Y[Aib]QGTFTSDFSQ[αMeL]LDKK([AEEA-γGlu-C18 diacid])AQ[αMe4Pal]AFIEYLIE[Aib]GESSGAPPPSGE-NH2 [Example 233] | – | – | – | – | – | 41.8 | – | – | 223 | 0.874 | 2.25 | 28.1 | 0.0884 | 453 | 24.8
H-Y[Aib]QGTFTSDFSR[αMeL]LDKK([AEEA-AEEA-γGlu-C18 diacid])AQ[Aib]AFIEYLLE[Aib]GPSSGAPPPSGS-NH2 [Example 80] | – | – | – | – | – | 48.2 | – | – | 627 | 2.55 | 7.44 | 10.1 | 0.0593 | 1190 | 35.8
H-Y[Aib]QGTFTSDFSR[αMeL]LDKK([AEEA-γGlu-C18 diacid])AQ[Aib]AFIEYLLE[Aib]GPSSGAPPPSGS-NH2 [Example 79] | – | – | – | – | – | 45.3 | – | – | 437 | 1.8 | 3.08 | 14.3 | 0.0773 | 903 | 56.6
H-Y[Aib]QGTFTSDFSR[αMeL]LDKK([AEEA-γGlu-C18 diacid])AQ[αMe4Pal]AFIEYLIE[Aib]GESSGAPPPSGE-NH2 [Example 231] | – | – | – | – | – | 27.7 | – | – | 223 | 1.3 | 2.12 | 27.4 | 0.119 | 443 | 36.1
H-Y[Aib]QGTFTSDFSR[αMeL]LDKK([AEEA-γGlu-C20 diacid])AQ[Aib]AFIEYLLE[Aib]GPSSGAPPPGGS-NH2 [Example 42] | – | – | – | – | – | 58.3 | – | – | 700 | 2.17 | 5.83 | 32.3 | 0.115 | 1520 | 61.4
H-Y[Aib]QGTFTSDFS[Dap][αMeL]LDKK([AEEA-γGlu-C18 diacid])AQ[Aib]AFIEYLLEGGPSSGAPPPGGS-NH2 [Example 68] | 612 | 3.07 | 8.55 | 85.1 | 95.2 | 33.8 | 0.46 | 1160 | – | – | – | – | – | – | –
H-Y[Aib]QGTFTSDFS[Orn][αMeL]LDKK([AEEA-AEEA-γGlu-C18 diacid])AQ[Aib]AFIEYLLEGGPSSGAPPPGES-NH2 [Example 118] | 1450 | 6.03 | 7.02 | 63.4 | 82.3 | 46.4 | 0.43 | 2460 | – | – | – | – | – | – | –
H-Y[Aib]QGTFTSDFS[Orn][αMeL]LDKK([AEEA-AEEA-γGlu-C18 diacid])AQ[Aib]AFIEYLLEGGPSSGAPPPSGE-NH2 [Example 107] | 1110 | 8.5 | 10.8 | 61.3 | 150 | 45.1 | 0.426 | 1690 | – | – | – | – | – | – | –
H-Y[Aib]QGTFTSDFS[Orn][αMeL]LDKK([AEEA-AEEA-γGlu-C18 diacid])AQ[Aib]AFIEYLLE[Aib]GESSGAPPPSGS-NH2 [Example 179] | 904 | 5.81 | 4.82 | 21.3 | 63.4 | 48.4 | 0.104 | 1440 | – | – | – | – | – | – | –
H-Y[Aib]QGTFTSDFS[Orn][αMeL]LDKK([AEEA-AEEA-γGlu-C18 diacid])AQ[Aib]AFIEYLLE[Aib]GHSSGAPPPSGS-NH2 [Example 181] | 365 | 4.39 | 6.25 | 12.7 | 116 | 47.5 | 0.133 | 772 | – | – | – | – | – | – | –
H-Y[Aib]QGTFTSDFS[Orn][αMeL]LDKK([AEEA-AEEA-γGlu-C18 diacid])AQ[Aib]AFIEYLLE[Aib]GPSSGAPPPSGE-NH2 [Example 111] | 878 | 5.06 | 4.25 | 10.4 | 49.1 | 46.4 | 0.0888 | 1260 | – | – | – | – | – | – | –
